Measured values: PMC9929129, “Towards Translation of PqsR Inverse Agonists: From In Vitro Efficacy Optimization to In Vivo Proof‐of‐Principle” (Advanced Science, 2023)
Values after ≈ are worked out from the molar mass of the structure shown. Read-outs that look alike come from different tables or passages of the source.

Assays:
[1] = system: Pseudomonas aeruginosa PA14; assay: Pyocyanin assay in Pseudomonas aeruginosa; type: cell-based; details: PA14, 16 h, read-out: IC50 Pyocyanin
Method: 1.2.2 Pyocyanin assay in Pseudomonas aeruginosa
Inhibition of pyocyanin biosynthesis of compounds was measured spectrophotometrically as previously described.[2] Pseudomonas aeruginosa PA14 was grown in rich medium for 16 h under agitation with and without compound. Pyocyanin was extracted from cultures with chloroform, then re-extracted with 0.2 M HCl and quantified photometrically (520 nm). IC50 values were determined from dose-response curves of compounds using at least six different concentrations and fitting with non-linear regression analysis (OriginPro 2017–2020, Originlab Corporation). […]

[2] = Kinetic turbidimetric aqueous solubility; details: PBS buffer, kinetic from dmso stock
[3] = Metabolic stability in mouse liver microsomes (MLM)
Method: 1.3.2 Metabolic-Stability Tests in Mouse Liver Microsomes (MLM).
Phase I metabolic stability was evaluated by incubating the compound (1 μM) with 0.5 mg/mL MLM (Corning) and 1 mM NADPH at 37 °C for 0, 5, 10, 15 and 30 min. The enzymatic activity of the MLM was determined by measuring the metabolic stability of Verapamil, Diphenhydramine and Benzydamine (1 μM each).
The half-life (t1/2) was determined by analyzing the concentrations of the compounds at the different time points by HPLC-MS/MS.

[4] = system: Bronchiectasis clinical isolates, PA14 and PAO1; assay: Antimicrobial minimal inhibitory concentrations (MIC), microdilution
[5] = biological target: T1, PqsR (Pseudomonas aeruginosa, UniProt Q9I4X0); details: cited from earlier work
T1 construct: expressed in transfected cells; host or cells: Escherichia coli DH5α with plasmid pEAL08-2
T1 sequence (Q9I4X0 whole entry): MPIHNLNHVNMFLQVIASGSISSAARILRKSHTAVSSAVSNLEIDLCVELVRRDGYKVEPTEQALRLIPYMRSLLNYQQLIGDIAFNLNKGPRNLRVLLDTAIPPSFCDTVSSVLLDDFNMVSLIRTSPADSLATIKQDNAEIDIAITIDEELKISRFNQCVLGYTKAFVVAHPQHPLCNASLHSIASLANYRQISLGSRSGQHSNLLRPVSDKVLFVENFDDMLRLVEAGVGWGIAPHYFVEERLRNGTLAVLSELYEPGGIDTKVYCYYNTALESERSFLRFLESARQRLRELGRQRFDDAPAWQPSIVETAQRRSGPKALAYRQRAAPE

[6] = system: Pseudomonas aeruginosa PA14; parameters: method as in PMID 31709767; details: previously published hit; read-out: IC50 Pyocyanin; cited from earlier work
[7] = strain column 1 of 16 (strain heads not assignable)

Row | Compound | IC50 [1] | solubility kinetic at 5 min [2] | half-life at 1 μM [3] | also measured
1 | FC(F)(F)c1cc(NCc2ccc(-c3cnc(Cl)c(Cl)c3)cn2)ccn1 [Compound 17] | 802 ± 200 nM | 76.2 µM (≈ 30.4 µg/mL) | 45 min | –
2 | Fc1ccc(CNc2ccnc(C(F)(F)F)c2)cc1 [Compound 2] | 176000 ± 47400 nM | > 200 µM | 54 min | –
3 | FC(F)(F)c1cc(NCc2ccc(-c3ccc(Cl)cc3)cc2)ccn1 [Compound 7] | 449 ± 74 nM | 10 µM (≈ 3.63 µg/mL) | > 40 min | –
4 | FC(F)(F)c1cc(NCc2ccc(-c3ccc(Cl)cn3)cn2)ccn1 [Compound 10] | 35100 ± 27500 nM | > 200 µM | 75 min | –
5 | FC(F)(F)c1cc(NCc2ccc(Cl)cc2)ccn1 [Compound 3] | 19000 ± 1200 nM | > 200 µM | 44 min | –
6 | COc1ncc(-c2ccc(CNc3ccnc(C(F)(F)F)c3)nc2)cc1Cl [Compound 18] | 1500 ± 200 nM | 42.4 µM (≈ 16.7 µg/mL) | 2 min | –
7 | FC(F)(F)c1cc(NCc2ccc(-c3ccc(Cl)nc3)cn2)ccn1 [Compound 11] | 7200 ± 4600 nM | 161 µM (≈ 58.6 µg/mL) | > 480 min | –
8 | CC(C)Oc1ccc(-c2ncc(CNc3ccnc(C(F)(F)F)c3)cn2)cc1 [Compound 22] | 521 ± 300 nM | 41.7 µM (≈ 16.2 µg/mL) | > 85 min | –
9 | FC(F)(F)c1cc(NCc2cnc(-c3ccc(Oc4ccccc4)cc3)nc2)ccn1 [Compound 21] | 320 ± 110 nM | 10.9 µM (≈ 4.6 µg/mL) | 32 min | –
10 | FC(F)(F)c1cc(NCc2ccc(-c3cnc(Cl)c(C(F)(F)F)c3)cn2)ccn1 [Compound 16] | 2100 ± 400 nM | 101 µM (≈ 43.7 µg/mL) | 384 min | –
11 | FC(F)(F)c1cc(NCc2cccc(Br)c2)ccn1 [Compound 5] | 71400 ± 27200 nM | > 200 µM | 20 min | –
12 | FC(F)(F)c1cc(NCc2cnc(-c3ccc(Cl)c(Cl)c3)nc2)ccn1 [Compound 20] | 234 ± 57 nM | 16.6 µM (≈ 6.63 µg/mL) | 61 min | –
13 | FC(F)(F)c1cc(NCc2ccc(-c3ccc(Oc4ccccc4)nc3)cn2)ccn1 [Compound 19] | 4200 ± 1100 nM | 25.6 µM (≈ 10.8 µg/mL) | 35 min | –
14 | FC(F)(F)c1cc(NCc2cnc(-c3ccc(C4CC4)cc3)nc2)ccn1 [Compound 23] | 591 ± 70 nM | 16.5 µM (≈ 6.11 µg/mL) | 3 min | –
15 | Cc1cc(-c2ccc(CNc3ccnc(C(F)(F)F)c3)nc2)cnc1Cl [Compound 15] | 1900 ± 300 nM | 112 µM (≈ 42.6 µg/mL) | < 5 min | –
16 | COc1ccc(-c2ccc(CNc3ccnc(C(F)(F)F)c3)nc2)cn1 [Compound 14] | 2900 ± 800 nM | > 200 µM | 77 min | –
17 | FC(F)(F)c1cc(SCc2ccc(-c3ccc(Cl)nc3)cn2)ccn1 [Compound 13] | 3100 ± 900 nM | 42.3 µM (≈ 16.2 µg/mL) | 6 min | –
18 | FC(F)(F)c1cc(NCc2ccc(Br)cc2)ccn1 [Compound 4] | 14400 ± 1600 nM | > 200 µM | 61 min | –
19 | CC(C)Oc1ncc(-c2ncc(CNc3ccnc(C(F)(F)F)c3)cn2)cc1Cl [Compound 25] | 523 ± 50 nM | 37.9 µM (≈ 16.1 µg/mL) | > 480 min | –
20 | FC(F)(F)c1cc(NCc2ccc(-c3ccc(Cl)cc3)cn2)ccn1 [Compound 9] | 2900 ± 3900 nM | 26.6 µM (≈ 9.68 µg/mL) | 57 min | –
21 | FC(F)(F)c1cc(OCc2ccc(-c3ccc(Cl)nc3)cn2)ccn1 [Compound 12] | > 20000 nM | 48.1 µM (≈ 17.6 µg/mL) | 74 min | –
22 | FC(F)(F)c1cc(NCc2ccc(-c3ccc(Cl)cc3)nc2)ccn1 [Compound 8] | 3300 ± 1300 nM | 38.9 µM (≈ 14.2 µg/mL) | 50 min | –
23 | CC(C)(O/N=C(\C(=O)N[C@@H]1C(=O)N2C(C(=O)[O-])=C(C[n+]3ccccc3)CS[C@H]12)c1csc(N)n1)C(=O)O [Ceftazidim] | – | – | – | MIC [4, 7]: 2 µg/mL (≈ 3.66 µM); MIC ([4]; strain column 2 of 16): 4 µg/mL (≈ 7.32 µM); MIC ([4]; strain column 3 of 16): 2 µg/mL (≈ 3.66 µM); MIC ([4]; strain column 4 of 16): ≤ 0.5 µg/mL; MIC ([4]; strain column 5 of 16): 2 µg/mL (≈ 3.66 µM); MIC ([4]; strain column 6 of 16): 1 µg/mL (≈ 1.83 µM); MIC ([4]; strain column 7 of 16): ≤ 0.5 µg/mL; MIC ([4]; strain column 8 of 16): 4 µg/mL (≈ 7.32 µM); MIC ([4]; strain column 9 of 16): ≤ 0.5 µg/mL; MIC ([4]; strain column 10 of 16): 16 µg/mL (≈ 29.3 µM); MIC ([4]; strain column 11 of 16): ≤ 0.5 µg/mL; MIC ([4]; strain column 12 of 16): 2 µg/mL (≈ 3.66 µM); MIC ([4]; strain column 13 of 16): ≤ 0.5 µg/mL; MIC ([4]; strain column 14 of 16): 4 µg/mL (≈ 7.32 µM); MIC ([4]; strain column 15 of 16): 4 µg/mL (≈ 7.32 µM); MIC ([4]; strain column 16 of 16): 2 µg/mL (≈ 3.66 µM)
24 | Colistin | – | – | – | MIC [4, 7]: 2 µg/mL; MIC ([4]; strain column 2 of 16): 2 µg/mL; MIC ([4]; strain column 3 of 16): 1 µg/mL; MIC ([4]; strain column 4 of 16): ≤ 0.5 µg/mL; MIC ([4]; strain column 5 of 16): 1 µg/mL; MIC ([4]; strain column 6 of 16): 2 µg/mL; MIC ([4]; strain column 7 of 16): 1 µg/mL; MIC ([4]; strain column 8 of 16): 2 µg/mL; MIC ([4]; strain column 9 of 16): 2 µg/mL; MIC ([4]; strain column 10 of 16): 1 µg/mL; MIC ([4]; strain column 11 of 16): 1 µg/mL; MIC ([4]; strain column 12 of 16): 2 µg/mL; MIC ([4]; strain column 13 of 16): 1 µg/mL; MIC ([4]; strain column 14 of 16): 1 µg/mL; MIC ([4]; strain column 15 of 16): 1 µg/mL; MIC ([4]; strain column 16 of 16): 2 µg/mL
25 | Nc1cc(NCc2ccc(F)cc2)cc(C(F)(F)F)n1 [Compound 1] | – | – | – | IC50 ([5]; read-out: IC50 PqsR, previously published hit): 2310 nM; IC50 ([5]; read-out: IC50 toward PqsR in heterologous lacZ reporter gene assay in E. coli): 2300 nM; IC50 [6]: 107000 nM
26 | FC(F)(F)c1cc(NCc2ccccc2Br)ccn1 [Compound 6] | 126000 ± 10600 nM | > 200 µM | 4 min | –
